# Laboratory results taken from PMC10252891 (Cells, 2023).
# Values joined by “and” are separate entries in the source; they are usually repeats but may differ in a detail not shown here. Identical values can stand only once.
# Columns and labels:
# [1] = system: PTZ-induced epileptiform brain discharges in zebrafish larvae; design: method as in PMID 34768849; settings: pimpinellin; cited from earlier work
# [2] = cited from earlier work
# zebrafish larvae = experiment: Locomotor activity of zebrafish larvae without proconvulsant treatment; type: in vivo, Danio rerio
# Description: (§1) 100 µL of embryo medium or 100 µL of a 40 mM PTZ solution was added to obtain a final concentration of 20 mM of PTZ in each well [30]. Larvae were habituated for 5 min in a dark chamber of an automated tracking device (ZebraBox system; Viewpoint, Lyon, France). Then, the locomotor activity without proconvulsant treatment was measured in the dark. The total locomotor activity was quantified using ZebraLab software (Viewpoint, Lyon, France) and was expressed in “actinteg”’ units, which is the sum of all pixel changes detected during the period defined for the experiment. After the evaluation of preincubated larvae movements, PTZ solution was added, and the locomotor behavior was measured for 30 min for each condition. All tracking experiments were performed at least in triplicate.
# [3] = mammals; cited from earlier work
# [4] = LC-MS/MS quantification of whole-body uptake in immersed zebrafish larvae
# Description: After immersion larvae were plated in 1% BSA for 15 s and washed thoroughly by shaking to remove all compounds from the larvae surface. […] For quantification, six larvae were pooled before homogenization. Three experiments were carried out in independent days.
# These were homogenized with the Ultrasonic Processor UP50H (Hielscher): 1 cycle—60% amplitude. The run consisted of two cycles of 15 s with a rest of 50 s in ice for each sample. […] To 100 µL of homogenate 200 µL of the internal standard (IS) Rolipram (Sigma Aldrich, Buchs, Switzerland) (20 ng/mL) for the positive MS experiment, and VPA d-6 (Sigma Aldrich, Buchs, Switzerland) (50 µg/mL) for the negative MS experiment were added. Samples were vortexed for 10 s and then centrifuged at 12,000 rpm for 10 min at 4 °C. After centrifugation, 150 µL of supernatant was transferred into LC-MS vials already containing 120 µL of MilliQ water. Then, 10 µL was injected into the LC-MS/MS system.
# A hybrid triple quadrupole 4000 QTRAP mass spectrometer (AB Sciex Concord, ON, Canada) was used with a Shimadzu UFLC (Shimadzu Corporation, Kyoto, Japan) with a cooled auto-sampler. The sample temperature was maintained at 4 °C in the auto-sampler prior to analysis. The LC column was Synergi 4 µm Fusion-RP 80Å C18 50 × 2 mm, Phenomenex, maintained at 45 °C. The system was operated first in positive and after in negative mode with the same elution mobile phases and gradient method. Mobile phases were as follows: water with 0.1% formic acid (solvent A) and methanol with 0.1% formic acid (solvent B). […] The flow rate was 0.80 mL/min. Peaks were integrated, and the analyst software version 1.6.2 (AB Sciex Concord, ON, Canada) was used for quantification. […] Negative mode: Valproic acid m/z 143→143, (IS: Valproic Acid-d6 149→149).
# [5] = system: PTZ-induced seizure-like movements in zebrafish larvae; experiment: PTZ-induced seizure-like locomotor tracking in zebrafish larvae; type: in vivo, Danio rerio; settings: for decrease of actinteg values of PTZ-treated larvae: 1 h pre-immersion; for decrease of actinteg values of PTZ-treated larvae / decrease of locomotor activity of PTZ-treated larvae: 20 mM PTZ, vs vehicle-PTZ group
# Description: For immersion 6 days post-fertilization (dpf) and for all measurements, 7-dpf larvae were used. The zebrafish experiments described here were approved by the Local Ethics Committee in Lublin (license no: 109/2018).
# All compounds were dissolved in dimethyl sulfoxide (DMSO) and diluted in an embryo medium to achieve a final DMSO concentration of 1% w/v. Embryo medium prepared with DMSO to a final concentration of 1% w/v served as vehicle control (VHC). PTZ (Sigma-Aldrich, Poznań, Poland) was dissolved at a concentration of 40 mM in the embryo medium. The control anticonvulsant agent used in this study was VPN (Sigma-Aldrich, Poznań, Poland).
# as §1
# [6] = treated humans; cited from earlier work
# LAT1 = biological target: T1, LAT1 (Homo sapiens, UniProt Q01650); experiment: [3H]-L-leucine uptake inhibition in MDST8-LAT1 cells; type: cell-based; settings: LAT1 transfected cells
# T1 construct: expressed in transfected cells; host or cells: MDST8-LAT1 cells
# T1 sequence (Q01650 whole entry): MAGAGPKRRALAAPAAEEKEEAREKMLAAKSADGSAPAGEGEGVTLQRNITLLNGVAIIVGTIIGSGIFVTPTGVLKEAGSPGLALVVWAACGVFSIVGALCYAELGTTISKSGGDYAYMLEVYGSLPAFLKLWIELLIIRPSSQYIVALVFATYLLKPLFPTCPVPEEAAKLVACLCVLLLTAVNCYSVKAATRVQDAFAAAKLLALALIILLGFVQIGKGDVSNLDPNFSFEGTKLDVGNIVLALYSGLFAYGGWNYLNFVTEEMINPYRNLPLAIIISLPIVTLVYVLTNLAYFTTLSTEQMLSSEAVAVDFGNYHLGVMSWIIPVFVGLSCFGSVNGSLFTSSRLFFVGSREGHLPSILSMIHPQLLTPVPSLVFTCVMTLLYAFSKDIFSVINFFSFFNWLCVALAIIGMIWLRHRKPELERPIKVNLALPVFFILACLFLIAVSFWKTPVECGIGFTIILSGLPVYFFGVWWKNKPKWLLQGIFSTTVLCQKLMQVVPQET
# T1 sequence (P08195 102-630 partner): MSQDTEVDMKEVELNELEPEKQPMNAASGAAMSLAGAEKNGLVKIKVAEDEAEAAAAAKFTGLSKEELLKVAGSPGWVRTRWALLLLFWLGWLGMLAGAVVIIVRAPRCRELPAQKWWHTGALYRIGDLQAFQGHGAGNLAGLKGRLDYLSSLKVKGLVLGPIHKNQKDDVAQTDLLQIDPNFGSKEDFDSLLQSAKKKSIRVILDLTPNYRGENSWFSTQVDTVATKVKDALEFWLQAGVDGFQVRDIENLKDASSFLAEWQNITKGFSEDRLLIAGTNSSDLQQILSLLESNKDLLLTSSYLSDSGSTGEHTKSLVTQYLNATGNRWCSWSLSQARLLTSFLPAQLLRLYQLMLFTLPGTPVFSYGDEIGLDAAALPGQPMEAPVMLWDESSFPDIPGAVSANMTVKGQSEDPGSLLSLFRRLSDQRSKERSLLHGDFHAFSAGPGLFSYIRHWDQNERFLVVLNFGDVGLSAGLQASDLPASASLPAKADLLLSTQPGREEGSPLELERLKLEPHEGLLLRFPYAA
# Description: [3H]-L-Leucine uptake assay
# [3H]-L-Leucine uptake assay was performed as previously described [Yan et al., 2021]. Cells were seeded in 96-well plates with opaque bottom (Corning, 353296) at 40-60% confluency, allowing them to attach for 48 hours in a fully supplemented media. Cells were preincubated with different concentrations of […]
# Solution (HBSS) containing 125 mM choline-Cl, 25 mM HEPES, 4.8 mM KCl, 1.2 mM MgSO4, 1.2 mM KH2PO4, 1.3 mM CaCl2 and 5.6 mM D-glucose (pH 7.4) and further incubated with the same solution for 7 minutes at 37 °C. [3H]-l-Leucine uptake was assessed in the same solution containing 10 nM “hot” [3H]-L-Leucine (60 Ci/mmol) (Anawa, 0140A-1) + 30 μM “cold” L-leucine. In case of 5 μM JPH203, the same procedure was followed without PTX preincubation. After 3 minutes, the solution was removed, and the cells were washed with ice-cold Na+-free HBSS to terminate the uptake. Cells were lysed with scintillation solvent MicroScint-20 (Perkin-Elmer Life Sciences, 6013621) and the radioactivity was measured with a scintillation counter (TopCount NXT, Perkin-Elmer Life Sciences).
# *Yan R, Li Y, Müller J, Zhang Y, Singer S, Xia L, Zhong X, Gertsch J, Altmann KH, Zhou Q. Mechanism of substrate transport and inhibition of the human LAT1-4F2hc amino acid transporter. Cell Discov.
# [7] = system: zebrafish larvae whole-body metabolites; experiment: Amino acid and neurotransmitter quantification (targeted metabolomics) in zebrafish larvae whole-body; type: in vivo, Danio rerio; settings: PTX 20 μM, 18 h immersion
# Description: For quantification, six larvae were pooled before homogenization. Three experiments were carried out in independent days.
# The samples were prepared as described before. To 80 µL of the homogenate 320 µL of MeOH was added to precipitate proteins at a volume dilution […]. After centrifugation at max speed (20,000 rpm) at 4 °C for 10 min, 50 µL were diluted with 200 µL of 1:1 MeOH:1 mM EDTA in Water (Dil 1:4). Samples were centrifuged at max speed at 4 °C for 10 min, and 50 µL were taken into the LC-MS insert vials, 5 µL of the internal standard mix (ethanolamine_d4, dopamine_d4, methionine_d3, serine_d3, lysine_d4 glycine_d5, and acetylcholine_d4) was added to all vials.
# The LC column used was Imtakt Intrada amino acid WAA34, 100 × 3 mm; 3 µm, maintained at 35 °C. The system was operated in positive mode. Mobile phases were: 100 mM Ammonium formate in water (mobile phase A) and 95:5:0.3 acetonitrile:water:formic acid (mobile phase B).
# [8] = system: PTZ-induced epileptiform brain discharges in zebrafish larvae; experiment: Local field potential (LFP) recordings, power spectral density (PSD) analysis, PTZ-induced seizure model; type: in vivo, Danio rerio; settings: PTX 20 µM, 18 h immersion, mean PSD over the 1–50 Hz region, 20 mM PTZ
# Description: Non-invasive local field potential (LFP) was recorded from the optic tectum of zebrafish as described before. Before the recording, the treated larvae were immersed for 15 min in 100 µL of VHC or 20 mM PTZ. After immersion, a larva was immobilized in 2% low melting agarose (Invitogen, Waltham, MA, USA) and the signal electrode (Hilgenberg, Germany) was placed on the surface of the head above the optic tectum. The differential signal between the recording electrode and the reference electrode was amplified 10,000 times by EXT-02F/2 extracellular amplifier (NPI Electronic, Tamm, Germany), band pass filtered at 3–300 Hz and digitized at 2 kHz via a PCI-6251 interface (National Instruments, Austin, Texas, USA) with WinEDR (John Dempster, University of Strathclyde, Glasgow, Scotland). A HumBug noise eliminator (Quest Scientific, Hofheim, Germany) was used to remove 50–60 Hz noise. The recordings and the quantification of the signal from epileptiform brain discharges by Welch’s power spectral density (PSD) analysis were performed as described before.
compound,measurement,setting,value
"COc1c(OC)c2occc2c2oc(=O)ccc12 [Pimpinellin, pimpinellin]",decrease of normalized PSD,[1],81%
"CCCC(CCC)C(=O)O [VPA, valproic acid]",solubility in aqueous solutions,[2],1200 µg/mL
"CCCC(CCC)C(=O)O [VPN, sodium valproate]",locomotor activity without PTZ vs vehicle,"zebrafish larvae; VPN 5 mM, 18 h",significant inhibition of the locomotor activity
same,oral bioavailability,[3],~ 90%
same,% Absorbed,"[4]; VPN/VPA 100 µM, 1 h immersion",~ 6%
same,% Absorbed,"[4]; VPN/VPA 100 µM, 1 h immersion, listed as VPN/VPA",6.5%
same,% Absorbed,"[4]; VPN/VPA 500 µM, 1 h immersion",2.3%
same,% Absorbed,"[4]; VPN/VPA 1 mM, 1 h immersion",3.3%
same,% Absorbed,"[4]; VPN/VPA 5 mM, 5 min immersion",0.77%
same,% Absorbed,"[4]; VPN/VPA 5 mM, 5 min immersion, listed as VPN/VPA",0.8%
same,% Absorbed,"[4]; VPN/VPA 5 mM, 30 min immersion",1.44%
same,% Absorbed,"[4]; VPN/VPA 5 mM, 30 min immersion, listed as VPN/VPA",1.4%
same,% Absorbed,"[4]; VPN/VPA 5 mM, 1 h immersion",2.52%
same,% Absorbed,"[4]; VPN/VPA 5 mM, 1 h immersion, listed as VPN/VPA",2.5%
same,% Absorbed,"[4]; VPN/VPA 5 mM, 18 h immersion (metabolism)",0.76% (metabolism)
same,% Absorbed,"[4]; VPN/VPA 5 mM, without larvae",100%
same,Measured concentration,"[4]; VPN/VPA 5 mM, without larvae","734,333 ± 5859 ng/g and 5092 ± 40.6 µM"
same,concentration at 1 h,"[4]; zebrafish (Danio rerio) larvae, whole-body larvae homogenate, other: immersion in compound-containing medium, 100 µM, Measured concentration in larvae whole-body, VPN/VPA 100 µM, 1 h immersion",941 ng/g and 6.5 µM
same,concentration at 1 h,"[4]; zebrafish (Danio rerio) larvae, whole-body larvae homogenate, other: immersion in compound-containing medium, 500 µM, Measured concentration in larvae whole-body, VPN/VPA 500 µM, 1 h immersion",1680 ng/g and 11.6 µM
same,concentration at 1 h,"[4]; zebrafish (Danio rerio) larvae, whole-body larvae homogenate, other: immersion in compound-containing medium, 1 mM, Measured concentration in larvae whole-body, VPN/VPA 1 mM, 1 h immersion",4740 ng/g and 32.9 µM
same,concentration at 5 min,"[4]; zebrafish (Danio rerio) larvae, whole-body larvae homogenate, other: immersion in compound-containing medium, 5 mM, Measured concentration in larvae whole-body, VPN/VPA 5 mM, 5 min immersion",5600 ng/g and 38.8 µM
same,concentration at 30 min,"[4]; zebrafish (Danio rerio) larvae, whole-body larvae homogenate, other: immersion in compound-containing medium, 5 mM, Measured concentration in larvae whole-body, VPN/VPA 5 mM, 30 min immersion",10400 ng/g and 71.9 µM
same,concentration at 1 h,"[4]; zebrafish (Danio rerio) larvae, whole-body larvae homogenate, other: immersion in compound-containing medium, 5 mM, Measured concentration in larvae whole-body, VPN/VPA 5 mM, 1 h immersion",18200 ng/g
same,concentration at 18 h,"[4]; zebrafish (Danio rerio) larvae, whole-body larvae homogenate, other: immersion in compound-containing medium, 5 mM, Measured concentration in larvae whole-body, VPN/VPA 5 mM, 18 h immersion",5470 ng/g and 38 µM
same,concentration at 1 h,"[4]; zebrafish (Danio rerio) larvae, whole-body larvae homogenate, other: immersion in compound-containing medium, 5 mM, concentration in larvae whole-body, VPN 5 mM, 1 h",18200 ± 400 ng/g
same,concentration at 1 h,"[4]; zebrafish (Danio rerio) larvae, whole-body larvae homogenate, other: immersion in compound-containing medium, 10 mM, Measured concentration in larvae whole-body, VPN/VPA 10 mM, 1 h immersion",33900 ng/g and 235 µM
same,efficacy against PTZ-induced seizure-like movements,"[5]; VPN 5 mM, 1 h",~ 80%
same,activity of PTZ-treated larvae vs vehicle-PTZ group,"[5]; VPN 5 mM, 18 h immersion, p < 0.001",decreased the activity
same,"therapeutic plasma concentration, total",[6],300 to 700 µM
same,"therapeutic plasma concentration, unbound",[6],30 to 100 µM
pteryxin [PTX],effect on the LAT1-mediated leucine transport,LAT1,did not show any effect
same,average movements without PTZ vs vehicle,"zebrafish larvae; PTX 5 µM, 1 h",increased the average movements
same,locomotor activity without PTZ vs vehicle,"zebrafish larvae; PTX 20 µM, 1 h",decreased locomotor activity
same,locomotor activity without PTZ vs vehicle,"zebrafish larvae; PTX 20 µM, 18 h",significant inhibition of the locomotor activity
same,decrease of some AA levels vs control,[7],up to 60%
same,decrease in the PSD values,[8],99.8%
same,decrease of actinteg values of PTZ-treated larvae,[5]; PTX 10 µM,37.6%
same,decrease of locomotor activity of PTZ-treated larvae,"[5]; PTX 10 µM, 18 h immersion",61.4%
same,decrease of actinteg values of PTZ-treated larvae,[5]; PTX 15 µM,57.6%
same,decrease of locomotor activity of PTZ-treated larvae,"[5]; PTX 15 µM, 18 h immersion",73.3%
same,decrease of actinteg values of PTZ-treated larvae,[5]; PTX 20 µM,~ 70% and 70.6%
same,decrease of locomotor activity of PTZ-treated larvae,"[5]; PTX 20 µM, 18 h immersion",78.2%
